# Results as given in PMC12198407, “Preclinical and first-in-human of purinostat mesylate, a novel selective HDAC I/IIb inhibitor, in relapsed/refractory multiple myeloma and lymphoma” (Signal Transduction and Targeted Therapy, 2025).
# Where “and” joins values, the source holds several entries; their conditions need not be identical. Equal values may be shown once.
# Legend:
# [1] = Systemic active allergic test; type: in vivo, guinea pigs; conditions: 0.204 and 0.612 mg/mL
# Procedure: This experiment included a negative control group, a positive control group, a blank formulation group of injectable Purinostat Mesylate, and low and high dose groups of injectable Purinostat Mesylate, with 6 British guinea pigs in each group, evenly divided by sex. During the sensitization phase, the low and high dose groups received intravenous injections of 0.204 mg/mL and 0.612 mg/mL of injectable Purinostat Mesylate (1 and 3 times the maximum intended clinical concentration, respectively) at a volume of 0.5 mL per guinea pig. The blank formulation group received intravenous injections of the excipient in the same volume as the high dose group. The negative control group received an equal volume of 0.9% sodium chloride injection, while the positive control group received an intraperitoneal injection of 4 mg of ovalbumin solution per guinea pig. Sensitization was performed once every other day for a total of 3 consecutive sensitizations. On days 14 and 21 after the last sensitization, each group received an intravenous injection of 2 times the sensitizing dose to provoke an allergic response. Reactions and mortality were observed 30 minutes after the provocation injection.
# r/r DLBCL PDX = r/r DLBCL PDX mouse model; type: in vivo, mice; conditions: PM 10 mg/kg; Pola-BR per Table S9
# Procedure: All animal studies were performed in accordance with the guidelines approved by the Institutional Animal Care and Use Committee of Sichuan University, Chengdu, China. Six- to seven-week-old female NOD-SCID mice were purchased from Beijing Vital River Laboratory Animal Technology Co., Ltd. (China). Mice received subcutaneous inoculation with 0.5 × 10^7 MM1S or RPMI-8226 cells, to establish xenograft models. Heterotopic PDX models were generated as previously described.[54] When tumors reached 150–250 mm^3, mice were treated with various compounds. PM and panobinostat were administered intravenously three times a week at 5 mg/kg in combination therapy. […] Tumor volume (tumor volume (mm^3) = π/6 × length × width^2) and body weights were measured every two days. At the end, tumor tissues were weighed, and antitumor activity was evaluated by the tumor inhibition rate = (1 − tumor weight of treatment group/tumor weight of vehicle group) × 100%.
# HDAC8 = HDAC8 (Homo sapiens, UniProt Q9BY41); assay: HDAC enzyme activity in vitro; type: biochemical
# Sequence of HDAC8 (Q9BY41 whole entry): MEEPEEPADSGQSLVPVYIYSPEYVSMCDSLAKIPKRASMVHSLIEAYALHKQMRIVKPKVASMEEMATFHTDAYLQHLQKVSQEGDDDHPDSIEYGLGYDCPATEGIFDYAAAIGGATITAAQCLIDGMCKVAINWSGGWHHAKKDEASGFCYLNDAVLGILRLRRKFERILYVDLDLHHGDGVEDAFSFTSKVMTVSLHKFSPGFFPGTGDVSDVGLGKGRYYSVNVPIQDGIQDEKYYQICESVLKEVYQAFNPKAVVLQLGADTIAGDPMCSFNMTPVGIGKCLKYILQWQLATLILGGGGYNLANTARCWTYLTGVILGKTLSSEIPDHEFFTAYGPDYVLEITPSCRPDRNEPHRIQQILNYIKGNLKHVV
# r/r MM and r/r lymphoma = assay: Phase I trial NCT05526313, efficacy assessment; type: in vivo, human
# Procedure: This open-label, non-randomized, first-in-human phase I dose-escalation two-center trial enrolled adult patients with lymphoma or MM who were refractory or relapsed after ≥1 prior regimen (NCT05526313). All patients provided written informed consent, and the study was conducted in accordance with the principles of the Declaration of Helsinki. PM was administered by 30-min intravenous infusion in a standard 3 + 3 dose escalation design, starting from 1.2, 2.4, 4.0, 6.0, 8.4, 11.2, up to 15 mg/m^2. This trial was conducted in three sequential stages as follows: the first stage as a single dose (day 1), the second stage as multiple doses (day 8, 11, and 15), and the third stage as extended doses (day 1, 4, 8, 11 in 21-day cycles). The decision to proceed to the third stage is based on the patient’s continued benefit from the previous two stages. Patients continued to receive PM until unacceptable toxicity or disease progression. Between August 2020 and August 2022, 11 r/r MM and 18 r/r lymphoma patients were enrolled. The cutoff date for the assessment of safety and efficacy was July 7, 2023. The incidence and severity of adverse events were assessed according to the National Cancer Institute Common Terminology Criteria for Adverse Events (CTCAE 5.0). The efficacy of PM in patients with r/r MM was evaluated according to the standards of the Chinese Multiple Myeloma Diagnosis and Treatment Guidelines (2017 Revised) and the 2016 International Myeloma Working Group (IMWG). Minimal response (MR) (only for the evaluation of r/r MM): serum M protein decreased by 25–49% and 24 h light chain decreased by 50–89%. If soft tissue plasmacytoma exists at baseline, the sum of the product of perpendicular diameters (SPD) of measurable lesions is required to be reduced by ≥50%.[56],[57] The number and size of osteolytic lesions have not increased (compression fractures are allowed). […] Detailed methods for pharmacodynamic studies, safety and tolerability assessments (including the definition of DLT and maximum tolerated dose), and efficacy assessment are provided in Supplementary Methods.
# Disease response of patients was measured according to the Chinese Multiple Myeloma Diagnosis and Treatment Guidelines (2017 Revised) and the 2016 International Myeloma Working Group (IMWG) for multiple myeloma or the International Working Group consensus response evaluation criteria in lymphoma (RECIL 2017). Patients need to be evaluated for efficacy after completing the cycle 1 of PM treatment (single and multiple dosing phases, day 25) and every 2 treatment cycles during the extended dosing phase. For r/r multiple myeloma, the efficacy was evaluated by quantification of M protein immunofixation electrophoresis of serum and urine. For r/r lymphoma, if sites with available positron emission tomography (PET) imaging, tumor volume was quantified by PET computed tomography (CT), and if sites where PET was not available, CT or magnetic resonance imaging was used. Objective response rate (ORR)=CR+PR+MR, and disease control rate (DCR)=CR+PR+MR+SD, and calculate their 95% confidence interval using the Clopper-Pearson method. The efficacy assessable population was determined to include all patients who were administered at least one dose of PM and had undergone at least one tumor assessment after the baseline.
# [2] = tested on: BCR-ABL positive B-ALL PDX; assay: PDX model of clinical B-ALL patient; type: in vivo, NOD/SCID mice
# Text: A clinical sample from a B-ALL patient was obtained, characterized by BCR-ABL positivity and relapse after first-line treatment.
# CYP2C8 = target: T1, CYP2C8 (Homo sapiens, UniProt P10632); assay: CYP inhibition, human liver microsomes; type: in vitro ADME
# T1 construct: human liver microsomal cytochrome P450 isoenzymes; from tissue; host or cells: human liver microsomes
# T1 sequence (P10632 whole entry): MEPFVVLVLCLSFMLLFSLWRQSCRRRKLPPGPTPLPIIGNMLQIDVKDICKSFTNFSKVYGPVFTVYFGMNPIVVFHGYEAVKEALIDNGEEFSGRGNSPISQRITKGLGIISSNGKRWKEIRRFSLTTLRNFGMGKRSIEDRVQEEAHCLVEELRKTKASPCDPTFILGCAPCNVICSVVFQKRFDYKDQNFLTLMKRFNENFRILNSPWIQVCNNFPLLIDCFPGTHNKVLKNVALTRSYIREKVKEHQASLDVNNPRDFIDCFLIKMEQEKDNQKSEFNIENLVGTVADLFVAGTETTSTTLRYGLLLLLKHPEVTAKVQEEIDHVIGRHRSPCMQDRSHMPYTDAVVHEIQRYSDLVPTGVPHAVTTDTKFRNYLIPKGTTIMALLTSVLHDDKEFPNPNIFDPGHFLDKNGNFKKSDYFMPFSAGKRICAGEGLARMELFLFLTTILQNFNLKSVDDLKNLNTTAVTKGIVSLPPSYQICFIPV
# [3] = by row: r4 MM, r5 DLBCL, r6 FL, r7 other lymphomas, r8 total
structure (smiles),measurement,setting,value
"CN(Cc1nc2c(N3CCOCC3)nc(-c3ccc(N)cc3)nc2n1C)c1ncc(C(=O)NO)cn1.CS(=O)(=O)O [PM, 2-(((2-(4-Aminophenyl)-9-methyl-6-(4-morpholinyl)-9H-purine-8-yl)methyl)methylamino)-N-hydroxy-5-pyrimidine-carboxamide Mesylate]",systemic active allergic test outcome,[1],negative
same,tumor inhibition rate,r/r DLBCL PDX,77.14%
same,IC50,HDAC8,3.8 nM
same,DCR,"r/r MM and r/r lymphoma; DLBCL, n=11",72.7%
same,duration of PR,r/r MM and r/r lymphoma; FL patient with multiple extranodal lesions,more than 10 cycles
same,DCR,"r/r MM and r/r lymphoma; FL, n=3",66.7%
same,ORR,"r/r MM and r/r lymphoma; FL, n=3",66.7%
same,duration of MR,"r/r MM and r/r lymphoma; Patient No.10, 6.0 mg/m²",more than 6 months
same,M-protein after 2 cycles,"r/r MM and r/r lymphoma; Patient No.10, 6.0 mg/m², baseline 26.290 g/L",15.998 g/L
same,Best Response CR,r/r MM and r/r lymphoma; [3],6(54.5) n (%) and 6(20.7) n (%)
same,Best Response MR,r/r MM and r/r lymphoma; [3],1(33.3) n (%)
same,Best Response PD,r/r MM and r/r lymphoma; [3],1(33.3) n (%)
same,Best Response PR,r/r MM and r/r lymphoma; [3],1(33.3) n (%)
same,Best Response SD,r/r MM and r/r lymphoma; [3],10(34.5) n (%)
same,DCR,"r/r MM and r/r lymphoma; other lymphomas, n=4",100%
same,ORR,"r/r MM and r/r lymphoma; other lymphomas, n=4",50.0%
same,duration of CR,r/r MM and r/r lymphoma; r/r DEL DLBCL patient with MYD88 mutation,over 18 months
same,duration of CR,r/r MM and r/r lymphoma; r/r DEL patient No.26,more than 1.5 years
same,Response (%): CR,r/r MM and r/r lymphoma; r/r DLBCL,54.5%
same,ORR,"r/r MM and r/r lymphoma; r/r DLBCL, n=11",63.6%
same,number of complete responses,"r/r MM and r/r lymphoma; r/r DLBCL, n=11",6
same,number of partial responses,"r/r MM and r/r lymphoma; r/r DLBCL, n=11",1
same,DCR,"r/r MM and r/r lymphoma; r/r MM, n=11",72.7%
same,ORR,"r/r MM and r/r lymphoma; r/r MM, n=11, 1.2–8.4 mg/m^2",9.1% and 9.09%
same,ORR,"r/r MM and r/r lymphoma; r/r lymphoma, n=18, 4.0–15.0 mg/m^2",61.1%
same,DCR,"r/r MM and r/r lymphoma; total, n=29",75.9%
same,ORR,"r/r MM and r/r lymphoma; total, n=29",41.4%
same,median survival time,"[2]; 2.5 mg/kg, solvent control 21 days",66 days
same,median survival time,[2]; 10 mg/kg,73 days
same,IC50,CYP2C8,> 10000 nM
